From patent publication US20100190733A1, “Methods of Treating Muscular Dystrophies” (Primus Pharmaceuticals, Inc., priority 2009, published 2010)

Key:
mdx mice [1] = details: previous studies (Ref. 36-37); cited from earlier work
[2] = system: muscle regeneration after traumatic injury; details: systemic administration (Ref. 21); cited from earlier work
mdx mice [3] = details: previous studies (Ref. 38 and 39); cited from earlier work
mdx mice [4] = test: Histological studies of biceps muscle, Example 2; type: in vivo; details: genistein 2 mg/kg/ip daily for 5 weeks vs vehicle
Protocol: (§1) Mdx animals were purchased from Charles River Italy (Calco, Milan, Italy). Animals were 4 weeks old on arrival and were acclimatized for 5 days before the study. At the beginning of the experiment the mice, which were at that point 5 weeks old, weighted about 20-22 grams. The mice were treated daily for 5 weeks with either the phytoestrogen genistein (Sigma, Mo., USA) at a dose of 2 mg/kg/ip or its vehicle (1:3 DMSO: 0.9% NaCl solution).
Transverse cryostat sections 10 μm thick were obtained from the midpoint of the biceps and TA muscle body. The whole muscle cross sections (corresponding to a mean area of 2.10 mm^2 in biceps and 2.25 mm^2 in TA) were stained with hematoxylin-eosin and were examined by a blinded observer using the AxioVision 2.05 image analysis system equipped with an Axiocam camera scanner (Zeiss, Munchen, Germany). The following four areas with patchy distribution were recognized: 1) normal fibers identified by the presence of peripheral nuclei; 2) necrotic fibers identified by pale cytoplasm and phagocytosis; 3) regenerating fibers identified by small size, central nuclei with/without basophilic cytoplasm; 4) centrally nucleated fibers identified by normal size but with central nuclei. The area occupied by normal fibers, necrotic fibers, regenerating fibers, or centrally nucleated fibers was expressed as a percentage of the area of the whole muscle cross section.

[5] = system: Extensor digitorum longus muscles (EDL) of mdx mice; test: Electrophysiological studies of isolated EDL muscle, Example 2; type: in vivo; details: genistein 2 mg/kg/ip daily for 5 weeks vs vehicle
Protocol: as §1
Extensor digitorum longus muscles (EDL) were vertically mounted in a temperature controlled (30°) chamber containing Krebs Ringer bicarbonate buffer (Sigma k4002) and continuously gassed with a mixture of 95% O2 and 5% CO2. One end of the muscle was linked to a fixed clamp while the other end was connected to the lever-arm of an Aurora Scientific Instruments 300B actuator/transducer system using a nylon wire. […] For each experiment, the initial muscle length was adjusted to the length (L0) which produced the highest twitch force. The optimal fiber length (Lf) was determined by multiplying the value of L0 for the fiber length by the muscle length ratio (0.44 for the EDL and 0.71 for soleus). The muscle cross-sectional area (CSA) was determined for the EDL and soleus by dividing the muscle mass (m) by the product of the Lf and the density of mammalian skeletal muscle (1.06 mg/mm^3).
In order to measure force generation, the muscle was initially stimulated with two 0.5 ms single pulses (with a rest time of 150 s) to measure twitch force, twitch force/cross sectional area (CSA), and contraction time (the time that the isolated muscle needs to reach the peak force after delivery of a single electrical pulse).
In order to measure high-stress eccentric contractions, the muscle was stimulated with five tetanic stimulations (train of 0.1 ms pulses delivered at 180 Hz, for 0.6 s) to evaluate the maximum isometric force (and maximum force/cross sectional area (CSA)) and the decline in maximal isometric force. The latter was measured by dividing the force value at the last stimulation (F5) by the force value at the first stimulation (F1), and used as a index of myofiber injury caused by high-stress contractions.

mdx mice [6] = test: Serum creatine kinase (CK) evaluation, Example 2; type: in vivo; details: genistein 2 mg/kg/ip daily for 5 weeks vs vehicle
Protocol: as §1
Blood samples were centrifuged at 6000 g and the serum was stored at −80° C. until the day of analysis. Serum CK was evaluated at 37° C. using a commercially available kit (Randox Laboratories LTD, Antrim, UK). The results are expressed as U/L.

NF-κB = NF-κB activation (EMSA) in skeletal muscle, Example 2; type: in vivo; details: mdx mice skeletal muscle, genistein 2 mg/kg/ip daily for 5 weeks vs vehicle
Protocol: as §1
Isolation of nuclear proteins in approximately 50 mg of frozen skeletal muscle tissue was performed according to recently detailed method (See ref 15 below). Twenty micrograms of nuclear extract were incubated for 30 min at room temperature with 50 fmol of biotin-end-labeled 45-mer double-strand NF-κB oligonucleotide from the HIV long terminal repeat, 5-[…] GGCGTGGG-3 containing 2(underlined) NF-κB binding sites. Both complimentary oligos were end-labeled separately and then annealed prior to use. […] The results were expressed as relative integrated intensity compared with normal controls, considering exposure time, background levels and known protein concentration of an Epstein Barr virus nuclear antigen-1 extract, which was used as EMSA control.

Body weight, Example 2 = type: in vivo; details: mdx mice, genistein 2 mg/kg/ip daily for 5 weeks vs vehicle
Protocol: as §1
(§2) Mice were weighed and examined for forelimb strength at baseline and at the end of the experiment. Strength testing consisted of five separate measurements using a grip meter attached to a force transducer that measures the peak force generated (Stoelting Co., Wooddale Ill., USA). Specifically, the mouse grabbed the trapeze bar as it is pulled backward and the peak pull force in grams is recorded on a display. The three highest measurements for each animal were averaged to give the strength score.

mdx mice [7] = test: Immunohistochemistry of biceps (myogenin, dMHC), Example 2; type: in vivo; details: genistein 2 mg/kg/ip daily for 5 weeks vs vehicle
mdx mice [8] = test: Forelimb strength and fatigue by grip meter, Example 2; type: in vivo; details: genistein 2 mg/kg/ip daily for 5 weeks vs vehicle
Protocol: as §1, §2
The degree of fatigue was calculated by comparing the first two pulls to the last two pulls. The decrease between pulls 1+2 and pulls 4+5 provided the measure of fatigue.

WT and mdx mice [9] = test: Serum creatine kinase (CK) evaluation, Example 1; type: in vivo; details: after 5 weeks daily i.p. treatment, mean±SD
Protocol: (§3) Five-week old mdx and WT mice were treated for 5 weeks with daily 100 μl intraperitoneal injections with either flavocoxid (a mixture of catechin and baicalin) (n=8, 5 mg/kg), methylprednisolone (n=8, 0.75 mg/Kg) or vehicle (n=8, 33% (v/v) dimethylsulphoxide (DMSO) in 0.9% NaCl). At the end of the experiments, animals were anaesthetized with intraperitoneal administration of sodium penthobarbital (80 mg/kg). Blood was then collected by intracardiac puncture and used to analyze creatine kinase (CK) levels. The biceps, quadriceps and extensor digitorum longus (EDL) muscles were removed bilaterally and immediately frozen in liquid nitrogen-cooled isopentane and stored at −80° C. for histological and biochemical evaluations.
Blood samples were centrifuged at 6,000 RPM and the serum stored at −80° C. until the day of analysis. Serum CK was evaluated at 37° C. using a commercially available kit (Randox Laboratories LTD, Crumlin, Co. Antrim U.K). The results were expressed as U/L.

WT and mdx mice [10] = test: Forelimb strength and fatigue by grip meter, Example 1; type: in vivo; details: flavocoxid 5 mg/kg, methylprednisolone 0.75 mg/Kg
Protocol: as §3
(§4) Mice were weighed and examined for forelimb strength at baseline and after 5 weeks of treatment. Strength testing consisted of five separate measurements using a grip meter attached to a force transducer that measures peak force generated (Stoelting Co, Wooddale Ill., USA). Briefly, the mouse grabed the trapeze bar as it was pulled backward and the peak pull force in grams was recorded on a display upon release by the animal. The three highest measurements for each animal were averaged to give the strength score. The degree of fatigue was calculated by comparing the first two pulls to the last two pulls. The decrement between pulls 1+2 and pulls 4+5 gave the measure of fatigue.

Body weight, Example 1 = type: in vivo; details: WT mice, after 5 weeks daily i.p. treatment, compared to WT mice treated with vehicle
Protocol: as §3
as §4, with “The decrement between pulls 1+2 and pulls 4+5 gave the measure of fatigue.” left out

[11] = end of 5 weeks daily i.p. treatment

## CC(=O)SCCC1Cc2c(C)c(OC(=O)CCC(=O)O)c(C)c(C)c2O1 (racemic) [IRFI-042, (±)-5-emisuccinoyl-2-[2-(acetylthio)ethyl]-2,3-dihydro-4,6,7-trimethylbenzofuran]
Mdx mice [1]
  effects on functional, biochemical and morphological parameters of mdx mice muscle fibers: beneficial effects

## COc1cc(/C=C/C(=O)CC(=O)/C=C/c2ccc(O)c(OC)c2)ccc1O [curcumin]
[2]
  muscle regeneration after traumatic injury: stimulates muscle regeneration

## O=C(O[C@@H]1Cc2c(O)cc(O)cc2O[C@@H]1c1cc(O)c(O)c(O)c1)c1cc(O)c(O)c(O)c1 [epigallocatechin gallate]
Mdx mice [3]
  effect on mdx mice: beneficial effect

## O=c1c(-c2ccc(O)cc2)coc2cc(O)cc(O)c12 [genistein, 5,7-Dihydroxy-3-(4-hydroxyphenyl)chromen-4-one]
Mdx mice [4]
  necrosis in the biceps: decreased
  percentage of centrally nucleated fibers in the biceps: not found to modify
  percentage of normal muscular area in the biceps: not found to modify
  percentage of regenerating fibers in the biceps: increased
[5]
  contraction time: not found to modify
  decline of maximal isometric force (F5/F1 after five tetanic stimulations): reduced
  maximum force/CSA: not found to modify
  twice force/CSA: not found to modify
  twitch force: not found to modify
Mdx mice [6]
  CK levels: statistically significant reduction
NF-κB
  NF-κB activation: significantly decreased
Body weight, Example 2
  body weight: not significantly different
Mdx mice [7]
  myogenin expression in the nuclei of muscles: significantly increased
  number of dMHC positive fibers: not found to modify
  number of myogenin positive satellite cells (SC): not found to modify
Mdx mice [8]
  forelimb strength: significantly augmented
  level of fatigue: slightly lower
  strength normalized to weight: higher

## C[C@H]1C[C@@H]2[C@H]([C@@H](O)C[C@@]3(C)[C@H]2CC[C@]3(O)C(=O)CO)[C@@]2(C)C=CC(=O)C=C12 [methylprednisolone]
WT and mdx mice [9]; WT mice
  serum CK levels: 365±28 U/L
WT and mdx mice [9]; mdx mice
  serum CK levels: 1737±103 U/L
WT and mdx mice [10]; after 5 weeks daily i.p. treatment
  fatigue levels compared to vehicle-treated mdx: −13%
WT and mdx mice [10]; [11]
  forelimb strength compared to vehicle-treated mdx mice: +30%
  strength normalized to weight compared to vehicle-treated mdx mice: +27%
Body weight, Example 1
  body weight: increase in body weight

## S=C(S)N1CCCC1 [pyrrolidine dithiocarbamate]
Mdx mice [1]
  effects on functional, biochemical and morphological parameters of mdx mice muscle fibers: beneficial effects
